Results from the NIST ThermoML archive (doi:10.1016/j.fluid.2006.06.006).
“And” between values parts separate entries of the source, which are not always exact repeats. Equal entries are not always repeated.

Test: excess molar enthalpy (molar enthalpy of mixing); xn = mol fraction of the nth substance listed
Details: Liquid

O=C=O [carbon dioxide] + O
Details | excess molar enthalpy
323.1 K, 20200 kPa, x1 = 0.0274 | -0.0246 kcal/mol
323.1 K, 20200 kPa, x1 = 0.0288 | -0.0248 kcal/mol
323.1 K, 20200 kPa, x1 = 0.0359 | -0.0249 kcal/mol
323.1 K, 20200 kPa, x1 = 0.0427 | -0.0252 kcal/mol
323.1 K, 20200 kPa, x1 = 0.0461 | -0.0249 kcal/mol
323.1 K, 20200 kPa, x1 = 0.0494 | -0.0251 kcal/mol
323.1 K, 20200 kPa, x1 = 0.0692 | -0.0247 kcal/mol
373.1 K, 5050 kPa, x1 = 0.002 | -0.00308 kcal/mol
373.1 K, 5050 kPa, x1 = 0.0025 | -0.00418 kcal/mol
373.1 K, 5050 kPa, x1 = 0.003 | -0.00476 kcal/mol
373.1 K, 5050 kPa, x1 = 0.004 | -0.00614 kcal/mol
373.1 K, 5050 kPa, x1 = 0.0045 | -0.00686 kcal/mol
373.1 K, 5050 kPa, x1 = 0.005 | -0.00767 kcal/mol
373.1 K, 5050 kPa, x1 = 0.006 | -0.00901 kcal/mol
373.1 K, 5050 kPa, x1 = 0.007 | -0.01 kcal/mol
373.1 K, 5050 kPa, x1 = 0.0075 | -0.0109 kcal/mol
373.1 K, 5050 kPa, x1 = 0.008 | -0.0112 kcal/mol
373.1 K, 5050 kPa, x1 = 0.009 | -0.0112 kcal/mol
373.1 K, 5050 kPa, x1 = 0.01 | -0.0113 kcal/mol and -0.011 kcal/mol
373.1 K, 5050 kPa, x1 = 0.011 | -0.0113 kcal/mol
373.1 K, 5050 kPa, x1 = 0.0125 | -0.0109 kcal/mol
373.1 K, 5050 kPa, x1 = 0.014 | -0.011 kcal/mol
373.1 K, 5050 kPa, x1 = 0.0149 | -0.0103 kcal/mol
373.1 K, 5050 kPa, x1 = 0.0154 | -0.0106 kcal/mol
373.1 K, 5050 kPa, x1 = 0.0174 | -0.00997 kcal/mol
373.1 K, 5050 kPa, x1 = 0.0179 | -0.0097 kcal/mol
373.1 K, 5050 kPa, x1 = 0.0198 | -0.00939 kcal/mol
373.1 K, 10080 kPa, x1 = 0.0068 | -0.00801 kcal/mol
373.1 K, 10080 kPa, x1 = 0.0081 | -0.0088 kcal/mol
373.1 K, 10080 kPa, x1 = 0.0094 | -0.0104 kcal/mol
373.1 K, 10080 kPa, x1 = 0.0101 | -0.0114 kcal/mol
373.1 K, 10080 kPa, x1 = 0.0108 | -0.0122 kcal/mol
373.1 K, 10080 kPa, x1 = 0.0134 | -0.0147 kcal/mol
373.1 K, 10080 kPa, x1 = 0.0135 | -0.0145 kcal/mol
373.1 K, 10080 kPa, x1 = 0.02 | -0.0151 kcal/mol
373.1 K, 10080 kPa, x1 = 0.0201 | -0.0148 kcal/mol
373.1 K, 10080 kPa, x1 = 0.0228 | -0.0142 kcal/mol
373.1 K, 10080 kPa, x1 = 0.0263 | -0.0141 kcal/mol
373.1 K, 10080 kPa, x1 = 0.0265 | -0.0145 kcal/mol
373.1 K, 10080 kPa, x1 = 0.0294 | -0.0134 kcal/mol
373.1 K, 10080 kPa, x1 = 0.039 | -0.0134 kcal/mol
373.1 K, 10080 kPa, x1 = 0.0516 | -0.0122 kcal/mol
373.1 K, 19500 kPa, x1 = 0.0037 | -0.0016 kcal/mol
373.1 K, 19500 kPa, x1 = 0.0044 | -0.00182 kcal/mol
373.1 K, 19500 kPa, x1 = 0.0051 | -0.00198 kcal/mol
373.1 K, 19500 kPa, x1 = 0.0059 | -0.00225 kcal/mol
373.1 K, 19500 kPa, x1 = 0.0066 | -0.00251 kcal/mol
373.1 K, 19500 kPa, x1 = 0.0081 | -0.00294 kcal/mol
373.1 K, 19500 kPa, x1 = 0.0087 | -0.00335 kcal/mol
373.1 K, 19500 kPa, x1 = 0.0088 | -0.00327 kcal/mol
373.1 K, 19500 kPa, x1 = 0.0095 | -0.00337 kcal/mol
373.1 K, 19500 kPa, x1 = 0.011 | -0.00411 kcal/mol
373.1 K, 19500 kPa, x1 = 0.0123 | -0.00454 kcal/mol
373.1 K, 19500 kPa, x1 = 0.0145 | -0.00464 kcal/mol
373.1 K, 19500 kPa, x1 = 0.0146 | -0.00492 kcal/mol
373.1 K, 19500 kPa, x1 = 0.0159 | -0.00504 kcal/mol
373.1 K, 19500 kPa, x1 = 0.0167 | -0.00492 kcal/mol
373.1 K, 19500 kPa, x1 = 0.0181 | -0.00554 kcal/mol
373.1 K, 19500 kPa, x1 = 0.0182 | -0.00535 kcal/mol
373.1 K, 19500 kPa, x1 = 0.0195 | -0.00564 kcal/mol
373.1 K, 19500 kPa, x1 = 0.0217 | -0.0054 kcal/mol
373.1 K, 19500 kPa, x1 = 0.0218 | -0.0054 kcal/mol
373.1 K, 19500 kPa, x1 = 0.0251 | -0.00531 kcal/mol
373.1 K, 19500 kPa, x1 = 0.0253 | -0.00538 kcal/mol
373.1 K, 19500 kPa, x1 = 0.0265 | -0.00526 kcal/mol
373.1 K, 19500 kPa, x1 = 0.03 | -0.00488 kcal/mol
373.1 K, 19500 kPa, x1 = 0.0521 | -0.00258 kcal/mol
373.1 K, 19500 kPa, x1 = 0.0603 | -0.00186 kcal/mol
373.1 K, 19500 kPa, x1 = 0.0688 | -0.00086 kcal/mol
373.1 K, 19500 kPa, x1 = 0.0691 | -0.00129 kcal/mol
373.1 K, 19500 kPa, x1 = 0.0771 | -0.000478 kcal/mol
